Data published in US8431596B2 (Cancer Research Technology Limited, priority 2007, dated 2013).

Molecular target: T1, AXL (human catalytic domain) (Homo sapiens, UniProt P30530)
T1 construct: purchased Upstate Ltd. 14-512
T1 sequence (P30530 473-894): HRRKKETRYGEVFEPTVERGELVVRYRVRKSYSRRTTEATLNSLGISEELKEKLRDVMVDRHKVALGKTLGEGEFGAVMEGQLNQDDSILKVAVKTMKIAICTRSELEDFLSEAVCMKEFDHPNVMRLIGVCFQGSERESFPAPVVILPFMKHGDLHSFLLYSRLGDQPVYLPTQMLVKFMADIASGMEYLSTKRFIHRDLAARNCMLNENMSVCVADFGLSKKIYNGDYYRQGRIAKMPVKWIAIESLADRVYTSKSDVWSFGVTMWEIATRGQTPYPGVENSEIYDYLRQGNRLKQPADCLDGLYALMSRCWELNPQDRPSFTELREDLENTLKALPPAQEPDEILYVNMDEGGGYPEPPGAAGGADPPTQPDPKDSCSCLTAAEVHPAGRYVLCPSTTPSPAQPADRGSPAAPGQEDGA
Test: AXL (human catalytic domain) Enzyme Activity Assay (IMAP fluorescence polarisation)
Format: biochemical
Conditions: further data set (WW-001 through WW-169, XX-001 through XX-469, YY-001 through YY-016, ZZ-001 through ZZ-003); 150 μM ATP
In short: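 IMAP FP readout (Ex485/Em535, after overnight binding) measured inhibition of the human AXL catalytic domain (aa473-894, 15 nM final) acting on 100 nM 5FAM-CSK-tide at 150 μM ATP, equal to KM. Reactions ran 60 min at room temperature in pH 7.0 HEPES buffer; IC50 from 10-point curves.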

SMILES | IC50 [nM]
COc1ccccc1COc1cccc(-c2cccc3nc(Nc4ccc(OCCN5CCCC5)cc4)nn23)c1 [XX-338] | 1000 to 10000
Clc1ccccc1COc1cccc(-c2cccc3nc(Nc4ccc(OCCN5CCCC5)cc4)nn23)c1 [XX-339] | 1000 to 10000
COc1ccc(COc2cccc(-c3cccc4nc(Nc5ccc(OCCN6CCCC6)cc5)nn34)c2)cc1 [XX-340] | 100 to 1000
NC(=O)Cn1cc(-c2cccc3nc(Nc4ccc(OCCN5CCCC5)cc4)nn23)cn1 [XX-342] | 1000 to 10000
c1cc(-c2cnn(CC3CCCO3)c2)n2nc(Nc3ccc(OCCN4CCCC4)cc3)nc2c1 (centres unmarked) [XX-344] | 100 to 1000
CC(C)CCCn1cc(-c2cccc3nc(Nc4ccc(OCCN5CCCC5)cc4)nn23)cn1 [XX-345] | 100 to 1000
O=C(Cn1cc(-c2cccc3nc(Nc4ccc(OCCN5CCCC5)cc4)nn23)cn1)c1ccccc1 [XX-346] | 100 to 1000
c1cc(-c2ccc3cc[nH]c3c2)n2nc(Nc3ccc(OCCCN4CCCCC4)cc3)nc2c1 [XX-347] | 100 to 1000
O=C(NCc1cccc(-c2cccc3nc(Nc4ccc(OCCN5CCCC5)cc4)nn23)c1)Nc1cccc(Cl)c1 [XX-348, 1-(3-Chloro-phenyl)-3-(3-{2-[4-(2-pyrrolidin-1-yl-ethoxy)-phenylamino]-[1,2,4]triazolo[1,5-a]pyridin-5-yl}-benzyl)-urea] | 1000 to 10000
COCCn1cc(-c2cccc3nc(Nc4ccc(OCCN5CCCC5)cc4)nn23)cn1 [XX-349] | 100 to 1000
N#CCCn1cc(-c2cccc3nc(Nc4ccc(OCCN5CCCC5)cc4)nn23)cn1 [XX-351] | 100 to 1000
Clc1ccccc1Cn1cc(-c2cccc3nc(Nc4ccc(OCCN5CCCC5)cc4)nn23)cn1 [XX-354] | 100 to 1000
CCN(CC)CCOc1cc(Nc2nc3cccc(-c4ccc5c(c4)OCO5)n3n2)ccn1 [XX-358] | 100 to 1000
CCN(CC)CCOc1cc(Nc2nc3cccc(-c4ccc(OC(C)C)cc4)n3n2)ccn1 [XX-360] | ≤ 100
CCN(CC)CCOc1cc(Nc2nc3cccc(-c4ccc(OC)cc4)n3n2)ccn1 [XX-361] | ≤ 100
Fc1cccc(Cn2cc(-c3cccc4nc(Nc5ccc(OCCN6CCCC6)cc5)nn34)cn2)c1 [XX-367] | 100 to 1000
COc1ccc(-c2cccc3nc(Nc4ccc(N(C)C(=O)C(C)N5CCOCC5)cc4)nn23)cc1 (centres unmarked) [XX-368] | 100 to 1000
COc1cccc(Cn2cc(-c3cccc4nc(Nc5ccc(OCCN6CCCC6)cc5)nn34)cn2)c1 [XX-369] | 100 to 1000
Cc1cccc(S(=O)(=O)NCc2cccc(-c3cccc4nc(Nc5ccc(OCCN6CCCC6)cc5)nn34)c2)c1 [XX-370] | 100 to 1000
O=C(NCc1cccc(-c2cccc3nc(Nc4ccc(OCCN5CCCC5)cc4)nn23)c1)Nc1ccccc1 [XX-371] | 100 to 1000
CC(C)(C)NC(=O)NCc1cccc(-c2cccc3nc(Nc4ccc(OCCN5CCCC5)cc4)nn23)c1 [XX-372] | 100 to 1000

SMILES | IC50 [nM]
CCS(=O)(=O)n1cc(-c2cccc3nc(Nc4ccc(OCCN5CCCC5)cc4)nn23)cn1 [XX-374] | ≤ 100
CC(=O)Nc1ccc(S(=O)(=O)n2cc(-c3cccc4nc(Nc5ccc(OCCN6CCCC6)cc5)nn34)cn2)cc1 [XX-376] | 100 to 1000
Cc1cccc(S(=O)(=O)n2cc(-c3cccc4nc(Nc5ccc(OCCN6CCCC6)cc5)nn34)cn2)c1 [XX-377] | 100 to 1000
O=S(=O)(c1ccccc1Cl)n1cc(-c2cccc3nc(Nc4ccc(OCCN5CCCC5)cc4)nn23)cn1 [XX-378] | ≤ 100
O=S(=O)(C1CCCCC1)n1cc(-c2cccc3nc(Nc4ccc(OCCN5CCCC5)cc4)nn23)cn1 [XX-381] | ≤ 100
O=S(=O)(CCC(F)(F)F)n1cc(-c2cccc3nc(Nc4ccc(OCCN5CCCC5)cc4)nn23)cn1 [XX-382] | ≤ 100
CCCCCS(=O)(=O)n1cc(-c2cccc3nc(Nc4ccc(OCCN5CCCC5)cc4)nn23)cn1 [XX-384] | 100 to 1000
COc1ccc(-c2cccc3nc(Nc4ccnc(C(=O)NCCN5CCCC5)c4)nn23)cc1 [XX-386] | 1000 to 10000
CCN(CC)CCOc1cc(Nc2nc3cccc(-c4cnn(Cc5ccccc5)c4)n3n2)ccn1 [XX-387] | 100 to 1000
CC[C@@H](COc1ccc(Nc2nc3cccc(-c4ccc(OC)cc4)n3n2)cc1)N1CCCC1 [XX-388] | ≤ 100
CCN(CC)CCOc1cc(Nc2nc3cccc(-c4cnn(S(=O)(=O)CC(C)C)c4)n3n2)ccn1 [XX-389] | 100 to 1000
Cc1ncsc1CNc1cccc(-c2cccc3nc(Nc4ccc(OCCN5CCCC5)cc4)nn23)c1 [XX-394] | ≤ 100
c1ccc(CNc2cccc(-c3cccc4nc(Nc5ccc(OCCN6CCCC6)cc5)nn34)c2)cc1 [XX-398] | 100 to 1000
FC(F)(F)c1cccc(COc2cccc(-c3cccc4nc(Nc5ccc(OCCN6CCCC6)cc5)nn34)c2)c1 [XX-401] | 1000 to 10000
NC(=O)COc1cccc(-c2cccc3nc(Nc4ccc(OCCN5CCCC5)cc4)nn23)c1 [XX-404] | 1000 to 10000
CCCOc1cccc(-c2cccc3nc(Nc4ccc(OCCN5CCCC5)cc4)nn23)c1 [XX-405] | 1000 to 10000
Cc1ccc(-c2nnc(COc3cccc(-c4cccc5nc(Nc6ccc(OCCN7CCCC7)cc6)nn45)c3)o2)cc1 [XX-406] | 1000 to 10000
COc1ccc(-c2cccc3nc(Nc4ccc(C(=O)NCCN5CCCC5)o4)nn23)cc1 [XX-408] | 100 to 1000
COc1ccc(-c2cccc3nc(Nc4ccc(C(=O)NCCN5CCCC5)s4)nn23)cc1 [XX-409] | 100 to 1000
COc1ccc(-c2cccc3nc(Nc4ccc(OCC(O)CN5CCOCC5)cc4)nn23)cc1 (centres unmarked) [XX-410] | 100 to 1000
COc1ccc(-c2cccc3nc(Nc4ccc(OC[C@@H](c5ccccc5)N5CCCC5)cc4)nn23)cc1 [XX-411] | 100 to 1000

Continued, values first:

IC50 [nM] | SMILES
100 to 1000 | ClCc1cccc(-c2cccc3nc(Nc4ccc(OCCN5CCCC5)cc4)nn23)c1 [XX-341, [5-(3-Chloromethyl-phenyl)-[1,2,4]triazolo[1,5-a]pyridin-2-yl]-[4-(2-pyrrolidin-1-yl-ethoxy)-phenyl]-amine]
100 to 1000 | CCCCCn1cc(-c2cccc3nc(Nc4ccc(OCCN5CCCC5)cc4)nn23)cn1 [XX-343]
100 to 1000 | Cc1ccc(CCn2cc(-c3cccc4nc(Nc5ccc(OCCN6CCCC6)cc5)nn34)cn2)cc1 [XX-350]
100 to 1000 | Clc1cccc(Cn2cc(-c3cccc4nc(Nc5ccc(OCCN6CCCC6)cc5)nn34)cn2)c1 [XX-352]
≤ 100 | CC(C)CCn1cc(-c2cccc3nc(Nc4ccc(OCCN5CCCC5)cc4)nn23)cn1 [XX-353]
100 to 1000 | COc1ccc(-c2cccc3nc(Nc4ccc(N(C)C(=O)C(C)N5CCCC5)cc4)nn23)cc1 (centres unmarked) [XX-355]
100 to 1000 | c1cc(-c2cnn(CC3CCCCC3)c2)n2nc(Nc3ccc(OCCN4CCCC4)cc3)nc2c1 [XX-356]
100 to 1000 | CCN(CC)CCOc1cc(Nc2nc3cccc(-c4cccc(CO)c4)n3n2)ccn1 [XX-357]
≤ 100 | CCN(CC)CCOc1cc(Nc2nc3cccc(-c4ccc(OC)c(F)c4)n3n2)ccn1 [XX-359]
≤ 100 | CCN(CC)CCOc1cc(Nc2nc3cccc(-c4ccc5[nH]ccc5c4)n3n2)ccn1 [XX-363]
100 to 1000 | CCN(CC)CCOc1cc(Nc2nc3cccc(-c4cc5ccccc5o4)n3n2)ccn1 [XX-364]
100 to 1000 | Cc1ccc(-c2cccc3nc(Nc4cccc(C(=O)NCCN5CCCC5)c4)nn23)cc1F [XX-365]
100 to 1000 | FC(F)(F)Oc1cccc(Cn2cc(-c3cccc4nc(Nc5ccc(OCCN6CCCC6)cc5)nn34)cn2)c1 [XX-366]
100 to 1000 | CC(C)NC(=O)NCc1cccc(-c2cccc3nc(Nc4ccc(OCCN5CCCC5)cc4)nn23)c1 [XX-373]
≤ 100 | O=S(=O)(C1CC1)n1cc(-c2cccc3nc(Nc4ccc(OCCN5CCCC5)cc4)nn23)cn1 [XX-375]
100 to 1000 | CCCCCCS(=O)(=O)n1cc(-c2cccc3nc(Nc4ccc(OCCN5CCCC5)cc4)nn23)cn1 [XX-379]
≤ 100 | CCCS(=O)(=O)n1cc(-c2cccc3nc(Nc4ccc(OCCN5CCCC5)cc4)nn23)cn1 [XX-380]
≤ 100 | CCC(C)S(=O)(=O)n1cc(-c2cccc3nc(Nc4ccc(OCCN5CCCC5)cc4)nn23)cn1 (centres unmarked) [XX-383]
100 to 1000 | Cc1noc(C)c1S(=O)(=O)n1cc(-c2cccc3nc(Nc4ccc(OCCN5CCCC5)cc4)nn23)cn1 [XX-385]
≤ 100 | COc1ccc(-c2cccc3nc(Nc4cccc(N(C)C(=O)C(C)N5CCCC5)c4)nn23)cc1 (centres unmarked) [XX-390]
100 to 1000 | COc1ccc(-c2cccc3nc(Nc4cccc(N(C)C(=O)C(C)N5CCOCC5)c4)nn23)cc1 (centres unmarked) [XX-391]
100 to 1000 | Cc1ccc(CNc2cccc(-c3cccc4nc(Nc5ccc(OCCN6CCCC6)cc5)nn34)c2)o1 [XX-395]
≤ 100 | Cn1nccc1CNc1cccc(-c2cccc3nc(Nc4ccc(OCCN5CCCC5)cc4)nn23)c1 [XX-396]
100 to 1000 | Cc1nc(CNc2cccc(-c3cccc4nc(Nc5ccc(OCCN6CCCC6)cc5)nn34)c2)c(C)o1 [XX-397]
100 to 1000 | CCCCNc1cccc(-c2cccc3nc(Nc4ccc(OCCN5CCCC5)cc4)nn23)c1 [XX-399]
1000 to 10000 | Cc1ccccc1COc1cccc(-c2cccc3nc(Nc4ccc(OCCN5CCCC5)cc4)nn23)c1 [XX-400]
1000 to 10000 | FC(F)(F)c1ccccc1COc1cccc(-c2cccc3nc(Nc4ccc(OCCN5CCCC5)cc4)nn23)c1 [XX-402]
100 to 1000 | CC(Oc1cccc(-c2cccc3nc(Nc4ccc(OCCN5CCCC5)cc4)nn23)c1)C(=O)Nc1ccccc1 (centres unmarked) [XX-403]
100 to 1000 | Cn1nc(COc2cccc(-c3cccc4nc(Nc5ccc(OCCN6CCCC6)cc5)nn34)c2)c2ccccc21 [XX-407]
